Data: a melting point compilation (Tetko et al.; mined from patent text by program, amines drawn as free bases though some values may be those of a salt)

| SMILES | melting point |
| --- | --- |
| Nc1ccccc1-c1cccc(C(=O)O)c1 | 170 °C |
| CC=Cc1cccc2c1OC(c1ccccc1)CC2=O (configuration not stated) | < 50 °C |
| CC(=O)c1ccc(O)c(C(C)C)c1 | 142 to 144 °C |
| CCCCC(=N)NC(=O)Nc1ccccc1Cl | 132 to 134 °C |
| CN(C)C(=O)c1c(Cl)csc1-c1ncc(C(F)(F)F)cc1Cl | 85 to 86 °C |
| Cc1ccc(I)c(I)c1C | 175 to 178 °C |
| CCC12CCC3C4CCC(=O)C=C4C(C)CC3C1CCC2O (configuration not stated) | 127 to 130 °C |
| O=C(O)C1Cc2c(c(Cl)cc3c(-c4c(F)cccc4F)noc23)O1 (configuration not stated) | 240 to 241 °C |
| CC(C)C[C@H](O)C(=O)N[C@@H](C)C(=O)N[C@@H]1C(=O)NCCS[C@@H]1c1ccccc1 | 93 to 99 °C |
| CC(C)=CCCC(C)=CCOc1ccc(OCC=C(C)CCC=C(C)C)c(C(=O)NCCc2ccncc2)c1 | 59.1 to 60.6 °C |
| N#CN(Cc1ccc([N+](=O)[O-])cc1)C(=O)CCCC(=O)N(C#N)Cc1ccc([N+](=O)[O-])cc1 | 146 to 148 °C |
| C(=Cc1ccc(OCCCCc2nnn[nH]2)cc1)c1ccncc1 | 158 to 159 °C |
| COc1ccc(C=C[N+](=O)[O-])c(Cl)c1OC | 88 to 91 °C |
| CCCCOc1cc(Oc2ccc(C(F)(F)F)cn2)ccc1CCCOc1c(CC(=O)O)cccc1OC | 64 to 65 °C |
| CC(C)CC(NC(=O)C(Cc1c[nH]cn1)NC(=O)C(CC(=O)NCCc1ccccc1)Cc1cccc2ccccc12)C(O)C(=O)OCc1ccccc1 (mixture of isomers) | 81 to 86 °C |
| CC1(C)CC(=O)CC(C)(C)c2cc(Br)ccc21 | 104 to 105 °C |
| CC(C)(C)c1ccc2c(c1)C=C(C(=O)O)C(C(F)(F)F)O2 (configuration not stated) | 171 to 173 °C |

| SMILES | melting point |
| --- | --- |
| CC(OCc1cccnc1)C(=O)Nc1ccc(C(=O)Nc2ccccc2N)cc1 (configuration not stated) | 144 to 148 °C |
| CS(=O)(=O)Nc1c(CC(=O)O)cccc1Oc1ccccc1Cl | 159 to 163 °C |
| Cc1ccccc1Cc1n[nH]c2c1c(=O)n(-c1cccc(OC(F)(F)F)c1)c1ncccc21 | 240 to 242 °C |
| O=C(O)c1ccc2[nH]c3c(c2c1)CC(N1C(=O)c2ccccc2C1=O)CC3 (configuration not stated) | 345 to 348 °C |
| c1ccc(OCCSCc2nnc(-c3ccc(OCc4ccccn4)cc3)o2)cc1 | 115 °C |
| NNC(=O)C(F)(F)C(F)(F)C(F)(F)F | 138 to 142 °C |
| NC(=O)C(c1ccccc1)(c1ccccc1)c1ccc(N)cn1 | 215 to 220 °C |
| CC(C)Cn1c(CN2C(=O)c3ccccc3C2=O)c(-c2ccc(Cl)cc2)c2cc(OCc3ccccc3)ccc2c1=O | 182 to 183 °C |
| O=C1CC(c2ccc(Cl)cc2Cl)c2cc(Br)ccc2O1 (configuration not stated) | 117 to 118 °C |
| OCCn1ccc2ncnc(Nc3ccc(Oc4cccc5sncc45)c(Cl)c3)c21 | 218 to 220 °C |
| O=[N+]([O-])c1ccc(Nc2cccc(C(F)(F)C(F)(F)C(F)(F)C(F)(F)C(F)(F)C(F)(F)C(F)(F)C(F)(F)F)c2)c([N+](=O)[O-])c1 | 124 to 125 °C |
| CC(C)N(Cc1ccc(Cl)cc1)C(=O)Nc1ccccc1 | 109 to 111 °C |
| O=C(O)Cn1cc(Cc2nc3c(F)c(F)cc(F)c3s2)c2ccc(F)cc21 | 200 to 203 °C |
| O=C(O)c1cccc(-c2ccc3c(c2)N(c2ccc(Cl)cc2Cl)CCO3)c1 | 222 to 223 °C |
| C=CCc1c(-c2ccc(S(C)(=O)=O)cc2)cnn(CC(F)(F)F)c1=O | 192 to 195 °C |
| COc1ccc(-c2[nH]nc3c2C(=O)c2c(NC(=O)Cc4ccccc4)cccc2-3)cc1 | 280 °C |

Results, then the compound that gave them:

| melting point | SMILES |
| --- | --- |
| 210 to 211 °C | COc1nc(-c2ccc(F)cc2C)c2c(n1)N(c1c(F)cccc1F)C(=O)NC2 |
| 125 to 128 °C | Nc1nc2c(s1)CC(NC(=O)[C@@H]1CCCN1C(=O)CNC(c1ccccc1)(c1ccccc1)c1ccccc1)CC2 (some centres not stated) |
| 267 °C | COc1cccc(Nc2nc(NC(=O)C(C)(C)C)nc3[nH]c4ccccc4c23)c1 |
| 204 °C | Cc1cc(C#N)cc(C(=O)Nc2ccc(F)c(Cl)c2)n1 |
| 212 °C | COC(=O)c1cc(N)c2nc(C)nn2c1 |
| 247 to 252 °C | Cc1ccc2c(c1)c(=O)c1c(cnn1C)n2CC(N)=O |
| 153 °C | COC(=O)/C=C/COc1cc(-n2ncc(C(F)(F)F)c(C)c2=O)c(F)cc1Cl |
| 210 to 211 °C | Cc1ccc(C(=O)Nc2c(NC(=O)CN3CCSCC3)ccc3c2C(=O)c2ccccc2C3=O)cc1 |
| 74 °C | CCCNC(=O)n1c(Cc2ccccc2)noc1=O |
| 170 to 172 °C | CCCOc1ccc(S(=O)(=O)CC)cc1-c1nc2c(CC)nn(C[C@@H]3CCCN3C(=O)OC(C)(C)C)c2c(=O)[nH]1 |
| 103 to 105 °C | CCCc1cc(Cl)c2oc(C(=O)c3ccc(OC)cc3)c(C)c2c1OC(=O)c1ccc(OC)cc1 |
| 87 to 88 °C | OC(c1ccccc1)(c1ccccc1)C1CCN(CCCOc2ccccc2)CC1 |
| 87 to 90 °C | O=[N+]([O-])c1cccc(N2CCOCC2)c1 |
| 103 to 105 °C | CCCCn1c(=O)c2c(ncn2S(=O)(=O)c2c(C)noc2C)n(CCCC)c1=O |
| 125 to 132 °C | CCCN(CCc1coc2c(OC)cccc12)C1COc2c(F)ccc(C(N)=O)c2C1 (configuration not stated) |
| 243 °C | Cc1nc2c(N)nc3ccccc3c2n1OC(C)C |
| 195 to 196 °C | O=C(NCc1ccc(Cl)cc1)c1cn(N2CCOCC2)c2ccc(CN3CCOCC3)cc2c1=O |

| melting point | SMILES |
| --- | --- |
| 193 to 195 °C | CC1(C)[C@@H](CNC(=O)C2CCC(F)(F)CC2)CC[C@@]1(C)NCC(=O)N1C[C@@H](F)C[C@H]1C#N |
| 92 to 93.5 °C | C=C[C@@H]1CCC(=O)N1C(=O)[C@H](Cc1ccccc1)O[Si](C)(C)C(C)(C)C |
| 63 to 65 °C | CCOC(=O)c1c(C)nc(N2CCN(C)CC2)c2nnn(CC)c12 |
| 132 to 135 °C | COC(=O)C(Cc1ccc(O)c(O)c1)NC(=O)OC(C)(C)C (configuration not stated) |
| 157 to 162 °C | CCCCC(CC(=O)Nc1cc(C(N)=O)ccc1C(C)(C)C)c1ccc(OCCCOC)cc1OC (configuration not stated) |
| 212 to 215 °C | CCOC(=O)C1=C(C)NC(C)=C(C(=O)OC(C)C)C1c1csc2ccncc12 (configuration not stated) |
| 145 to 149 °C | OC(CCCN1CCc2c(c3cc(F)ccc3n2-c2ccc(F)cc2)C1)c1ccc(F)cc1 (configuration not stated) |
| 106 to 108 °C | CN(C(=O)c1ccc2nsnc2c1)C1CCOCC1 |
| 84 to 86 °C | CCNC(=O)ON=C1N=C(C)C(C)(C)S1 |
| 307 to 308 °C | COc1ccc(/C(C)=C/c2ccc(C(=O)O)cc2)cc1C12CC3CC(CC(C3)C1)C2 |
| 203 to 205 °C | CCCC(CCC)C(=O)N[C@@H](Cc1ccccc1)C(=O)N[C@H]1CCOC1=O |
| 99 to 104 °C | CC1=C(c2ccc(OCC(C)NCC(O)c3cccc(Cl)c3)cc2)CCC(=O)N1 (configuration not stated) |
| 133 to 134 °C | CN(C)S(=O)(=O)c1cc2c(c(Cl)c1Cl)OC(CO)C2 (configuration not stated) |
| 21 °C | CC(C)(CCc1cc2nc(Cl)ccc2n1S(=O)(=O)c1ccc2ncsc2c1)C(=O)O |
| 136 to 137 °C | Cc1cc(OCc2oc(-c3ccc(C(F)(F)F)cc3)nc2C)ccc1OCC(=O)O |
| 100 to 102 °C | COc1cc(N)c(Cl)cc1C(=O)NCC1CCN(CCCCC(=O)c2ccccc2)CC1 |
| 104 to 107 °C | CCC1(C)CC(=O)C2(C)CCC3c4ccc(OC)cc4CCC3C12 (configuration not stated) |
